Experiments:
[1] = target: TrkA (Homo sapiens, UniProt P04629); assay: Kinase Glo Plus kinase activity assay; format: biochemical
Procedure: (§1) 2) Activity of the rest 14 receptor tyrosine kinases was tested by using Kinase Glo Plus assay format, Progmag, and IC50 with regard to kinase activity was calculated based on the inhibition rate.

[2] = target: PDGFR; assay: Kinase Glo Plus kinase activity assay; format: biochemical
Procedure: as §1

[3] = target: TrkB (Homo sapiens, UniProt Q16620); assay: Kinase Glo Plus kinase activity assay; format: biochemical
Procedure: as §1

[4] = tested on: c-Met; conditions: MHCC97-H cells, 2 μM versus 1 μM SU11274
Procedure: The medium was changed once every 1-2 days. […] The supernatant was discarded, and fresh medium was added for subculture.
SU11274 (purchased from Sigma) is a specific c-Met kinase inhibitor which may block activation of c-Met. […] After incubation with the compounds for 2 h, the cells were harvested and total protein was extracted. Western blot assay was carried out with c-Met phosphorylated and non-phosphorylated antibodies, ERK phosphorylated and non-phosphorylated antibodies, Akt phosphorylated and non-phosphorylated antibodies (all purchased from Cell Signaling), and GAPDH antibody (purchased from Santa Cruz).

[5] = tested on: MHCC97-H cells; conditions: MHCC97-H s.c. nude mice; 16 mg/kg intraperitoneal, once every 24 h, 6 administrations; by tumor weight
Procedure: (§2) Establishment of tumor-bearing models: Tumor cells were cultured in T75 flasks until achieving a logarithmical growth. The cells were trypsinized and DMEM medium containing 10% fetal bovine serum was added to terminate trypsinization. The cells were washed with PBS twice, and suspended. Cell concentration was adjusted to 5×10^7 cells/ml, and 150 μl cell suspension was injected into the right flank of the mice. After inoculation, the tumors in the nude mice were observed every day, and the mice were grouped when the tumors reached a volume of 100 mm^3. Each nude mouse was numbered, and the tumor size was measured. The data was entered into EXCEL for sorting and thus excluding extreme values. Random numbers were generated corresponding to the number of the mice, and the mice were randomly grouped using these random numbers.
(§3) Administration: intraperitoneal injection was used at doses of 4 mg/kg, 8 mg/kg, and 16 mg/kg, respectively. The vehicle control group was injected with the same volume of DMSO. The mice received treatment once every 24 h, and a total of 6 times of administrations were given. During administration, changes of tumor size (length×width×width/2) were monitored and recorded in a real-time manner, and the results were expressed as mean±standard deviation.

[6] = tested on: MHCC97-L cells; conditions: MHCC97-L s.c. nude mice; 16 mg/kg intraperitoneal, once every 24 h, 6 administrations; by tumor weight
Procedure: as §2, §3

[7] = tested on: neuroblastoma SK-N-SH cells; assay: Subcutaneous SK-N-SH tumor-bearing nude mouse model; format: in vivo, nu/nu female mice; conditions: SK-N-SH s.c. nude mice, once every 24 h, 6 administrations
Excerpt: Model establishment: nu/nu female mice of 6-8 weeks old were fed under an SPF condition in an animal facility for one week, and then each of them was inoculated with 5×10^6 neuroblastoma SK-N-SH cells (purchased from ATCC) subcutaneously in left flank. Tumor volume was monitored every day after inoculation. Once the size reached ˜100 mm^3, mice were divided into groups.
Each group included 10 animals.

[8] = tested on: H460 cells; assay: In vitro antitumor activity, MTS cell proliferation; format: cell-based; conditions: Homo sapiens, NCI-H460, H460, lung cancer, 72 hours
Procedure: (§4) Method: 14 cell lines (MKN-45 cells, MHCC97-L cells, MHCC97-H cells, HLE cells, HepG2 cells, 7721 cells, L02 cells, A375 cells, H460 cells, A549 cells, SK-N-SH cells, MCF-7 cells, K562 cells, and Ba/F3-Tpr-Met cells (pre-B cells which are malignantly transformed by the c-Met constitutive active mutant Tpr-Met) were seeded into 96-well plate at 1×10^4 cells/well, and each well was added with 150 μl DMEM medium (purchased from Invitrogen) containing 10% fetal bovine serum (purchased from Hyclone). When cell adherent was observed, different concentrations of 2-indolone derivatives (concentrations at 0.1-10 μM) were added, in addition to the negative control (vehicle control group) and blank control (medium group). After culture at 37° C., 5% CO2 for 72 hours, MTS reagent (Promega Corporation) were added for further culture for 2-4 h.

[9] = tested on: MKN-45 cells; assay: as above; format: cell-based; conditions: Homo sapiens, MKN-45, gastric cancer, 72 hours
Procedure: as §4

[10] = tested on: SK-N-SH cells; assay: as above; format: cell-based; conditions: Homo sapiens, neuroblastoma, 72 hours
Procedure: as §4

[11] = tested on: Ba/F3-Tpr-Met cells; assay: as above; format: cell-based; conditions: pre-B cell, 72 hours
Procedure: as §4

[12] = tested on: HLE cells; assay: as above; format: cell-based; conditions: Homo sapiens, hepatocellular cancer, 72 hours
Procedure: as §4

[13] = tested on: MHCC97-L cells; assay: as above; format: cell-based; conditions: MHCC97L, hepatocellular cancer, 72 hours
Procedure: as §4

[14] = tested on: HepG2 cells; assay: as above; format: cell-based; conditions: Homo sapiens, HepG2, hepatocellular cancer, 72 hours
Procedure: as §4

[15] = tested on: MCF-7 cells; assay: as above; format: cell-based; conditions: Homo sapiens, MCF7, MCF-7, breast cancer, 72 hours
Procedure: as §4

[16] = tested on: A375 cells; assay: as above; format: cell-based; conditions: Homo sapiens, A-375, A375, skin cancer, 72 hours
Procedure: as §4

[17] = tested on: K562 cells; assay: as above; format: cell-based; conditions: Homo sapiens, K562, leukemia, 72 hours
Procedure: as §4

[18] = tested on: lung cancer cell A549; assay: Lung orthotopic tumor formation model; format: in vivo, BALB/c nude mice; conditions: for Tumor inhibition rate / Weight of tumor: 6 administrations; for Average weight (X ± S), End: animal weight at end, in g (unit assumed)
Procedure: The medium was changed once every 1-2 days. […] The subcultured tumor cells were digested into suspensions under a sterile condition, and orthotopically injected into BALB/c nude mice at the left chest between the third and fourth ribs (3.0×10^6 cells/mouse, 30 μl). The inoculation needle entered into the pulmonary lobe at a depth of about 5 mm. The inoculation day is labeled as DO. Seven days later, animals were weighed and randomized into groups based on body weight.
Method: Animal models were randomized into three groups, vehicle control group (DMSO injected intraperitoneally), intraperitoneal low dose group (18 mg/kg), and intraperitoneal high dose group (36 mg/kg). The animals received treatment once every 24 hours. After 6 times of successive administration, animals were kept for another 30 days. At the end of this experiment, animals were sacrificed, and dissected to obtain lungs. Tumor was dissected and weighed.

[19] = intraperitoneal high dose 36 mg/kg
[20] = intraperitoneal low dose 18 mg/kg

Sequence of TrkA (P04629 33-796, species assumed): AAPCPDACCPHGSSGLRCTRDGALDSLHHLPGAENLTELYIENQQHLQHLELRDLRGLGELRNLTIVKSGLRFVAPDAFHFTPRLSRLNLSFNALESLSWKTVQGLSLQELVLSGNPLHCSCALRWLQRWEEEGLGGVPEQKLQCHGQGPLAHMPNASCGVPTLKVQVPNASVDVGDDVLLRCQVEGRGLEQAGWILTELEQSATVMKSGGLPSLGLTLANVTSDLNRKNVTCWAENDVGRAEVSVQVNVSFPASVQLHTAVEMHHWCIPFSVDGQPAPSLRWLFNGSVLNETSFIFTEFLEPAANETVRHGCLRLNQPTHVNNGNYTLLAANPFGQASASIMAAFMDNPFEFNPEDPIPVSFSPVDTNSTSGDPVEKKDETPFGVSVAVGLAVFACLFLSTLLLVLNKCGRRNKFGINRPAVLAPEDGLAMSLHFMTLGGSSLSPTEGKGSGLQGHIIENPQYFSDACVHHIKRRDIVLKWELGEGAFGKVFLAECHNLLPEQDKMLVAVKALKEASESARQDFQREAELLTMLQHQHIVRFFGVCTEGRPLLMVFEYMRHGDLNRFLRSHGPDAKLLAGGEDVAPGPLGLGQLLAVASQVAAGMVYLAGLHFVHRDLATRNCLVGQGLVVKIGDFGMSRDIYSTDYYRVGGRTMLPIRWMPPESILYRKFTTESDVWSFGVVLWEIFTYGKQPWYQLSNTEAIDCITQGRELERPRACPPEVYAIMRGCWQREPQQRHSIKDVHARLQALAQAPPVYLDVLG
Sequence of TrkB (Q16620 32-822, species assumed): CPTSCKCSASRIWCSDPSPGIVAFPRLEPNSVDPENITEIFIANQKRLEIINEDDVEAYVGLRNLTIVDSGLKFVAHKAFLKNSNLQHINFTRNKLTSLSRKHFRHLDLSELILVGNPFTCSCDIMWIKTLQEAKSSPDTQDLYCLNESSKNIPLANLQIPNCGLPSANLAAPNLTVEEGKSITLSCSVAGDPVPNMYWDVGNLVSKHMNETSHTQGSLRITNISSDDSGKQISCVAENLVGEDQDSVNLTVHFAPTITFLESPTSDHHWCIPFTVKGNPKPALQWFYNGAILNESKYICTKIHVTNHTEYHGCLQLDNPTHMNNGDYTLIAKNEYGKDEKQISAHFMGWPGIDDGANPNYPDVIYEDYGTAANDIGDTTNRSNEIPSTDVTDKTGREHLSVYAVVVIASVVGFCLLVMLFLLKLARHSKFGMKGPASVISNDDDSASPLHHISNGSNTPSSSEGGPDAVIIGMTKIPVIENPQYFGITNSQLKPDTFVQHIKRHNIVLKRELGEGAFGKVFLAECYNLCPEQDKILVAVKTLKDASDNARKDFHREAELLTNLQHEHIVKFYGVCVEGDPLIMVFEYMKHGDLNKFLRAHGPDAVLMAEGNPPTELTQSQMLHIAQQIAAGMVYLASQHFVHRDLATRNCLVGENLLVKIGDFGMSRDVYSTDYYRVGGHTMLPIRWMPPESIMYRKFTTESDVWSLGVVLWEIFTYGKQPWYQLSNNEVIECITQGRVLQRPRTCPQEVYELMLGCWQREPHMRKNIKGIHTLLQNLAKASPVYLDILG

Cc1ccccc1NS(=O)(=O)c1ccc2c(c1)/C(=C/c1nc3ccccc3[nH]1)C(=O)N2 [Indo 5, 3-(1H-benzimidazol-2-methylene)-5-(2-methylphenylaminosulfo)-2-indolone]
IC50 [1]: 22 nM | IC50 [2]: > 10000 nM | IC50 [3]: 230 nM | Inhibitory effect on c-Met phosphorylation versus positive control [4]: comparable to the positive control SU11274 | Tumor inhibition rate [5]: 61% | Tumor inhibition rate [6]: 68% | Tumor inhibition rate ([7]; 16 mg/kg gavage): 48% | Tumor inhibition rate ([7]; 16 mg/kg intraperitoneal): 50% | IC50 [8]: 1070 nM | IC50 [9]: 1550 nM | IC50 [10]: 1190 nM | IC50 [11]: 4790 nM | IC50 [12]: 5230 nM | IC50 [13]: 1210 nM | IC50 [14]: 5660 nM | IC50 [15]: 1280 nM | IC50 [16]: 1870 nM | IC50 [17]: 2580 nM | Tumor inhibition rate [18, 19]: 40.7% | Weight of tumor [18, 19]: 0.224 ± 0.07 g | Average weight (X ± S), End [18, 19]: 20.4 ± 0.3 | Tumor inhibition rate [18, 20]: 23.8% | Weight of tumor [18, 20]: 0.288 ± 0.08 g | Average weight (X ± S), End [18, 20]: 19.5 ± 0.7
